Test results as given in patent US20100280031A1, “LIPID FORMULATION OF APOPTOSIS PROMOTER” (priority 2009, published 2010).
Like-named read-outs stand apart in the source and are kept apart here. Blank lines part the entries; values can stand above or below the compound they belong to.

Key:
[1] = PK study of ABT-263 bis-HCl liquid-filled capsules in non-fasted dogs; assay type: in vivo, beagle dogs
[2] = solubility in water; conditions: pH 2
Excerpt: It will be recognized that aqueous solubility of many compounds is pH-dependent; in the case of such compounds the solubility of interest herein is at a physiologically relevant pH, for example a pH of about 1 to about 8.

[3] = PK study of ABT-263 free base formulations in rats; assay type: in vivo, Sprague-Dawley rats; conditions: fasted rats, 5 mg/kg oral
Procedure: (§1) Serial heparinized blood samples were obtained from a tail vein of each animal prior to dosing and 0.25, 0.5, 1, 1.5, 2, 3, 4, 6, 8 and 24 hours after administration.

[4] = PK study of ABT-263 free base formulations in fasted dogs; assay type: in vivo, beagle dogs; conditions: oral
Procedure: Serial heparinized blood samples were obtained from a jugular vein of each animal prior to dosing and 0.25, 0.5, 1, 1.5, 2, 3, 4, 6, 9, 12, 15 and 24 hours after administration. […] The bioavailability was calculated as the dose-normalized AUC0-∞ from oral dosing divided by the corresponding value derived from i.v. (intravenous) dosing, administered as a slow bolus to a cephalic vein.

[5] = food-effect PK study of ABT-263 free base formulation in dogs; assay type: in vivo, beagle dogs; conditions: 10 mg/kg oral, 20 mg/ml, carrier PEG 400/Phosal 50 PG/DMSO (60:30:10)
[6] = PK study of ABT-263 free base liquid-filled capsules in non-fasted dogs; assay type: in vivo, beagle dogs
[7] = Phase 1 clinical PK study of ABT-263 bis-HCl formulation (Formulation C); assay type: in vivo, human; conditions: humans
Procedure: The formulation was prepared immediately or shortly (not more than about one month) prior to oral administration.
The study had several cycles, depending on the subjects' response to the drug.
The dose doubled until one grade 3 or two grade 2 toxicities occurred, after which dose escalated in 25-40% increments. Platelet levels were monitored and reviewed to inform dose escalation decisions.
Blood and plasma samples were protected from direct sunlight during collection, processing and storage. The timing of blood collections took priority over other scheduled study activities except for dosing. The order of blood collections was maintained to the minute such that the time intervals relative to the preceding dosing were the same for all subjects.
Blood samples were collected by venipuncture into 3-ml evacuated potassium EDTA-containing collection tubes during Cycle 1 Day −3, prior to dosing (0 hour) and at 0.5, 1, 2, 3, 4, 6, 8, 24, 48 and 72 (Day 1, predose sample) hours after dosing; Day 1, at 0.5, 1, 2, 3, 4, 6, 8 and 24 (Day 2, pre-dose sample) hours after dosing; Day 14, prior to dosing (0 hour) and at 0.5, 1, 2, 3, 4, 6 and 8 hours after dosing. Additional blood samples were collected at 0 hour (pre-dose) on Day 14, Cycle 2 through Cycle 6. Sufficient blood was collected to provide approximately 1 ml plasma from each sample. A total of 27 blood samples (approximately 81 ml) were collected per subject for pharmacokinetic analysis during Cycle 1 and one additional blood sample per subject per cycle, up to Cycle 6.

[8] = PK study of ABT-737 formulations in rats; assay type: in vivo, Sprague-Dawley rats; conditions: for AUC(0-inf) / bioavailability / Cmax: rats, 5 mg/kg oral; for bioavailability: read-out: Bioavailability (F %)
Procedure: as §1
Analysis was performed on a Sciex API3000™ biomolecular mass analyzer with a heated nebulizer interface. ABT-737 and internal standard peak areas were determined using Sciex MacQuan™ software. The plasma drug concentration of each sample was calculated by least squares linear regression analysis (non-weighted) of the peak area ratio (parent/internal standard) of the spiked plasma standards versus concentration. The plasma concentration data were submitted to multi-exponential curve fitting using WinNonlin 3 (Pharsight).
The area under the plasma concentration-time curve from 0 to t hours (time of the last measured plasma concentration) after dosing (AUC0-t) was calculated using the linear trapezoidal rule for the plasma concentration-time profiles. The residual area extrapolated to infinity, determined as the final measured plasma concentration (Ct) divided by the terminal elimination rate constant (β), was added to AUC0-t to produce the total area under the curve (AUC0-∞). The bioavailability was calculated as the dose-normalized AUC0-∞ from oral dosing divided by the corresponding value derived from i.v. (intravenous) dosing, administered as a slow bolus to a jugular vein under light ether anesthetic.

[9] = carrier Labrasol/Tween 20 (70:30), 50 mg/dog
[10] = carrier Phosal 53 MCT, 50 mg/dog
[11] = carrier Phosal 53 MCT/Labrasol (70:30), 50 mg/dog
[12] = carrier Phosal 53 MCT/Tween 20 (80:20), 50 mg/dog
[13] = carrier PEG 400/DMSO (90:10), 2 mg/ml
[14] = carrier PEG 400/Phosal 50 PG/DMSO (60:30:10), 5 mg/ml
[15] = carrier PEG 400/DMSO (90:10), 2.5 mg/kg, 5 mg/ml
[16] = carrier PEG 400/DMSO (90:10), 5 mg/kg, 10 mg/ml
[17] = carrier PEG 400/DMSO (90:10), 10 mg/kg, 20 mg/ml
[18] = carrier PEG 400/Phosal 50 PG/DMSO (60:30:10), 5 mg/kg, 10 mg/ml
[19] = carrier PEG 400/Phosal 50 PG/DMSO (60:30:10), 10 mg/kg, 20 mg/ml
[20] = liquid-filled capsules, carrier Capmul PG-8, 50 mg/dog
[21] = liquid-filled capsules, carrier Capmul PG-8/Cremophor EL (90:10), 50 mg/dog
[22] = liquid-filled capsules, carrier Phosal 53 MCT/PEG 400 (70:30), 50 mg/dog
[23] = liquid-filled capsules, carrier oleic acid/PEG 400/Cremophor EL (80:10:10), 50 mg/dog
[24] = oral, carrier PEG 400/Phosal 50 PG/DMSO (60:30:10), 20 mg/kg
[25] = 315 mg/day, Day 14, non-fasting
[26] = Sprague-Dawley, rat, plasma, po, 5 mg/kg, carrier D5W/PG/DMSO/Tween (70:20:5:5), 5 mg/ml
[27] = Sprague-Dawley, rat, plasma, po, 5 mg/kg, carrier Imwitor 380 (unneutralized)/ethanol (95:5), 10 mg/ml
[28] = Sprague-Dawley, rat, plasma, po, 5 mg/kg, carrier Phosal 50 PG/ethanol (90:10), 50 mg/ml
[29] = Sprague-Dawley, rat, plasma, po, 5 mg/kg, carrier Phosal 53 MCT/ethanol (90:10), 10 mg/ml

SMILES: CC1(C)CCC(c2ccc(Cl)cc2)=C(CN2CCN(c3ccc(C(=O)NS(=O)(=O)c4ccc(N[C@H](CCN5CCOCC5)CSc5ccccc5)c(S(=O)(=O)C(F)(F)F)c4)cc3)CC2)C1.Cl.Cl [ABT-263 bis-HCl]
Bioavailability (F %) ([1]; carrier Labrasol, […]): 29.4%
AUC0-∞ [1, 9]: 84800 ng·h/mL
Bioavailability (F %) [1, 9]: 39.0%
Cmax [1, 9]: 10310 ng/mL
AUC0-∞ [1, 10]: 89700 ng·h/mL
Bioavailability (F %) [1, 10]: 49.0%
Cmax [1, 10]: 9250 ng/mL
AUC0-∞ [1, 11]: 94300 ng·h/mL
Bioavailability (F %) [1, 11]: 38.5%
Cmax [1, 11]: 15830 ng/mL
Bioavailability (F %) ([1]; carrier Phosal 53 MCT/PEG 400 (70:30), […]): 40.8%
AUC0-∞ [1, 12]: 89900 ng·h/mL
Bioavailability (F %) [1, 12]: 48.5%
Cmax [1, 12]: 14020 ng/mL

SMILES: CC1(C)CCC(c2ccc(Cl)cc2)=C(CN2CCN(c3ccc(C(=O)NS(=O)(=O)c4ccc(N[C@H](CCN5CCOCC5)CSc5ccccc5)c(S(=O)(=O)C(F)(F)F)c4)cc3)CC2)C1 [ABT-263]
solubility in water [2]: less than 4 μg/ml
AUC0-∞ [3, 13]: 7530 ng·h/mL
Bioavailability (F %) [3, 13]: 21.6%
Cmax [3, 13]: 670 ng/mL
AUC0-∞ [3, 14]: 9960 ng·h/mL
Bioavailability (F %) [3, 14]: 28.5%
Cmax [3, 14]: 1050 ng/mL
AUC0-∞ [4, 15]: 27100 ng·h/mL
Cmax [4, 15]: 3670 ng/mL
AUC0-∞ [4, 16]: 39800 ng·h/mL
Bioavailability (F %) [4, 16]: 16.5%
Cmax [4, 16]: 6750 ng/mL
AUC0-∞ [4, 17]: 58300 ng·h/mL
Bioavailability (F %) [4, 17]: 12.1%
Cmax [4, 17]: 8460 ng/mL
AUC0-∞ [4, 18]: 115100 ng·h/mL
Cmax [4, 18]: 13220 ng/mL
AUC0-∞ [4, 19]: 173900 ng·h/mL
Bioavailability (F %) [4, 19]: 36.0%
Cmax [4, 19]: 21600 ng/mL
AUC0-∞ ([5]; fasted dogs): 156100 ng·h/mL
Cmax ([5]; fasted dogs): 20300 ng/mL
Bioavailability (F %) ([5]; fasted dogs, 10 mg/kg): 32.3%
AUC0-∞ ([5]; non-fasted dogs): 255600 ng·h/mL
Bioavailability (F %) ([5]; non-fasted dogs): 52.9%
Cmax ([5]; non-fasted dogs): 23500 ng/mL
AUC0-∞ [6, 20]: 59100 ng·h/mL
Bioavailability (F %) [6, 20]: 24.9%
Cmax [6, 20]: 6400 ng/mL
AUC0-∞ [6, 21]: 63300 ng·h/mL
Bioavailability (F %) [6, 21]: 27.7%
Cmax [6, 21]: 10610 ng/mL
AUC0-∞ [6, 22]: 119800 ng·h/mL
Bioavailability (F %) [6, 22]: 53.0%
Cmax [6, 22]: 21500 ng/mL
AUC0-∞ [6, 23]: 43800 ng·h/mL
Bioavailability (F %) [6, 23]: 20.5%
Cmax [6, 23]: 6840 ng/mL
AUC0-∞ [6, 24]: 537200 ng·h/mL
Bioavailability (F %) [6, 24]: 51.3%
Cmax [6, 24]: 47300 ng/mL
plasma concentration at steady state (peak) [7, 25]: about 5.5 μg/ml
plasma concentration at steady state (trough) [7, 25]: about 3 μg/ml
Tmax ([7]; single 315 mg dose, both fasting and non-fasting (FIG. 2)): around 8 hours

AUC(0-inf) [8, 26]: 230 ng·h/mL
bioavailability [8, 26]: 5.9%
AUC(0-inf) [8, 27]: 150 ng·h/mL
bioavailability [8, 27]: 3.9%
Cmax ([8]; Sprague-Dawley, rat, plasma, po, 5 mg/kg, carrier Imwitor 380 (unneutralized)/ethanol (95:5), 10 mg/ml, read-out: Cmax): 29 ng/mL
AUC(0-inf) [8, 28]: 60 ng·h/mL
bioavailability [8, 28]: 1.5%
Cmax ([8]; Sprague-Dawley, rat, plasma, po, 5 mg/kg, carrier Phosal 50 PG/ethanol (90:10), 50 mg/ml, read-out: Cmax): 24 ng/mL
AUC(0-inf) [8, 29]: 130 ng·h/mL
bioavailability [8, 29]: 3.3%
Cmax ([8]; Sprague-Dawley, rat, plasma, po, 5 mg/kg, carrier Phosal 53 MCT/ethanol (90:10), 10 mg/ml, read-out: Cmax): 28 ng/mL
Cmax ([8]; carrier D5W/PG/DMSO/Tween (70:20:5:5), 5 mg/ml): 32 ng/mL
Bioavailability in rats ([8]; regardless of the carrier): extremely low
SMILES: CN(C)CC[C@H](CSc1ccccc1)Nc1ccc(S(=O)(=O)NC(=O)c2ccc(N3CCN(Cc4ccccc4-c4ccc(Cl)cc4)CC3)cc2)cc1[N+](=O)[O-] [ABT-737, N-(4-(4-((4′-chloro-(1,1′-biphenyl)-2-yl)methyl)piperazin-1-yl)benzoyl)-4-(((1R)-3-(dimethylamino)-1-((phenylsulfanyl)methyl)propyl)amino)-3-nitrobenzene-sulfonamide]
